Species on record: Rattus norvegicus
Assay: DrugMatrix - Regimen: Daily Repeat
Assay type: toxicity, organism-based, Sprague-Dawley
Design: regimen Daily Repeat, gender Male, age 6-8 weeks
Conditions: in vivo, po, route oral GAVAGE, vehicle 100 % WATER; for BASOPHIL / EOSINOPHIL / ERYTHROCYTE COUNT / HEMATOCRIT / HEMOGLOBIN / LEUKOCYTE COUNT / LYMPHOCYTE / MEAN CORPUSCULAR HEMOGLOBIN / MEAN CORPUSCULAR HEMOGLOBIN CONCENTRATION / MEAN CORPUSCULAR VOLUME / MONOCYTE / NEUTROPHIL / PLATELET COUNT: tissue Blood; for ALANINE AMINOTRANSFERASE / ALBUMIN / ALKALINE PHOSPHATASE / ASPARTATE AMINOTRANSFERASE / BLOOD UREA NITROGEN / CHLORIDE / CHOLESTEROL / CREATINE PHOSPHOKINASE / CREATININE / GLUCOSE / PHOSPHORUS / POTASSIUM / SODIUM / TOTAL BILIRUBIN / TOTAL PROTEIN: tissue Plasma
[1] = 0 mg/kg, 72 h, dose level Control, time 3 day
[2] = 0 mg/kg, 120 h, dose level Control, time 5 day
[3] = 45 mg/kg, 72 h, dose level Low, time 3 day
[4] = 45 mg/kg, 120 h, dose level Low, time 5 day

SMILES: Nc1ccc(S(=O)(=O)Nc2ncccn2)cc1 [SULFADIAZINE]
- BASOPHIL [1]: 0%
- EOSINOPHIL [1]: 0.5%
- ERYTHROCYTE COUNT [1]: 5.8 x10E6/uL
- HEMATOCRIT [1]: 35.07%
- HEMOGLOBIN [1]: 14.12 G/DL
- LEUKOCYTE COUNT [1]: 13.7 x10E3/uL
- LYMPHOCYTE [1]: 82.33%
- MEAN CORPUSCULAR HEMOGLOBIN [1]: 24.38 pg
- MEAN CORPUSCULAR HEMOGLOBIN CONCENTRATION [1]: 40.28 G/DL
- MEAN CORPUSCULAR VOLUME [1]: 60.52 fL
- MONOCYTE [1]: 2.67%
- NEUTROPHIL [1]: 14.5%
- PLATELET COUNT [1]: 911.5 x10E3/uL
- ALANINE AMINOTRANSFERASE [1]: 36.83 u/L
- ALBUMIN [1]: 3.75 G/DL
- ALKALINE PHOSPHATASE [1]: 399.83 u/L
- ASPARTATE AMINOTRANSFERASE [1]: 66 u/L
- BLOOD UREA NITROGEN [1]: 14.67 mg/dL
- CHLORIDE [1]: 101.67 MEQ/L
- CHOLESTEROL [1]: 66.33 mg/dL
- CREATINE PHOSPHOKINASE [1]: 139.5 u/L
- CREATININE [1]: 0.92 mg/dL
- GLUCOSE [1]: 175 mg/dL
- PHOSPHORUS [1]: 11.42 mg/dL
- POTASSIUM [1]: 7.03 MEQ/L
- SODIUM [1]: 148.5 MEQ/L
- TOTAL BILIRUBIN [1]: 1.13 mg/dL
- TOTAL PROTEIN [1]: 6.87 G/DL
- BASOPHIL [2]: 0%
- EOSINOPHIL [2]: 0.2%
- ERYTHROCYTE COUNT [2]: 6.02 x10E6/uL
- HEMATOCRIT [2]: 36.48%
- HEMOGLOBIN [2]: 14.38 G/DL
- LEUKOCYTE COUNT [2]: 12.34 x10E3/uL
- LYMPHOCYTE [2]: 83%
- MEAN CORPUSCULAR HEMOGLOBIN [2]: 23.92 pg
- MEAN CORPUSCULAR HEMOGLOBIN CONCENTRATION [2]: 39.44 G/DL
- MEAN CORPUSCULAR VOLUME [2]: 60.66 fL
- MONOCYTE [2]: 3%
- NEUTROPHIL [2]: 13.8%
- PLATELET COUNT [2]: 1190.6 x10E3/uL
- ALANINE AMINOTRANSFERASE [2]: 43 u/L
- ALBUMIN [2]: 3.73 G/DL
- ALKALINE PHOSPHATASE [2]: 393 u/L
- ASPARTATE AMINOTRANSFERASE [2]: 62.33 u/L
- BLOOD UREA NITROGEN [2]: 16.33 mg/dL
- CHLORIDE [2]: 101.67 MEQ/L
- CHOLESTEROL [2]: 65.5 mg/dL
- CREATINE PHOSPHOKINASE [2]: 130.67 u/L
- CREATININE [2]: 0.58 mg/dL
- GLUCOSE [2]: 180.67 mg/dL
- PHOSPHORUS [2]: 11.28 mg/dL
- POTASSIUM [2]: 7.05 MEQ/L
- SODIUM [2]: 148.17 MEQ/L
- TOTAL BILIRUBIN [2]: 0.72 mg/dL
- TOTAL PROTEIN [2]: 6.83 G/DL
- BASOPHIL [3]: 0%
- EOSINOPHIL [3]: 0%
- ERYTHROCYTE COUNT [3]: 6.15 x10E6/uL
- HEMATOCRIT [3]: 35.77%
- HEMOGLOBIN [3]: 14.2 G/DL
- LEUKOCYTE COUNT [3]: 14.83 x10E3/uL
- LYMPHOCYTE [3]: 84%
- MEAN CORPUSCULAR HEMOGLOBIN [3]: 23.1 pg
- MEAN CORPUSCULAR HEMOGLOBIN CONCENTRATION [3]: 39.67 G/DL
- MEAN CORPUSCULAR VOLUME [3]: 58.17 fL
- MONOCYTE [3]: 2%
- NEUTROPHIL [3]: 14%
- PLATELET COUNT [3]: 1166 x10E3/uL
- ALANINE AMINOTRANSFERASE [3]: 33 u/L
- ALBUMIN [3]: 3.57 G/DL
- ALKALINE PHOSPHATASE [3]: 285 u/L
- ASPARTATE AMINOTRANSFERASE [3]: 56 u/L
- BLOOD UREA NITROGEN [3]: 11.67 mg/dL
- CHLORIDE [3]: 102 MEQ/L
- CHOLESTEROL [3]: 73.33 mg/dL
- CREATINE PHOSPHOKINASE [3]: 134 u/L
- CREATININE [3]: 0.6 mg/dL
- GLUCOSE [3]: 186 mg/dL
- PHOSPHORUS [3]: 11.9 mg/dL
- POTASSIUM [3]: 7 MEQ/L
- SODIUM [3]: 149.67 MEQ/L
- TOTAL BILIRUBIN [3]: 0.3 mg/dL
- TOTAL PROTEIN [3]: 6.33 G/DL
- BASOPHIL [4]: 0%
- EOSINOPHIL [4]: 0.33%
- ERYTHROCYTE COUNT [4]: 6.55 x10E6/uL
- HEMATOCRIT [4]: 40.3%
- HEMOGLOBIN [4]: 15.6 G/DL
- LEUKOCYTE COUNT [4]: 12.63 x10E3/uL
- LYMPHOCYTE [4]: 84%
- MEAN CORPUSCULAR HEMOGLOBIN [4]: 23.9 pg
- MEAN CORPUSCULAR HEMOGLOBIN CONCENTRATION [4]: 38.8 G/DL
- MEAN CORPUSCULAR VOLUME [4]: 61.57 fL
- MONOCYTE [4]: 1%
- NEUTROPHIL [4]: 14.67%
- PLATELET COUNT [4]: 1086.33 x10E3/uL
- ALANINE AMINOTRANSFERASE [4]: 37.67 u/L
- ALBUMIN [4]: 3.9 G/DL
- ALKALINE PHOSPHATASE [4]: 378 u/L
- ASPARTATE AMINOTRANSFERASE [4]: 55.67 u/L
- BLOOD UREA NITROGEN [4]: 12.67 mg/dL
- CHLORIDE [4]: 104 MEQ/L
- CHOLESTEROL [4]: 66.33 mg/dL
- CREATINE PHOSPHOKINASE [4]: 110.67 u/L
- CREATININE [4]: 0.63 mg/dL
- GLUCOSE [4]: 181.67 mg/dL
- PHOSPHORUS [4]: 12.57 mg/dL
- POTASSIUM [4]: 7.23 MEQ/L
- SODIUM [4]: 151.33 MEQ/L
- TOTAL BILIRUBIN [4]: 0.4 mg/dL
- TOTAL PROTEIN [4]: 7.03 G/DL

From ChEMBL document CHEMBL3885881, “DrugMatrix”
